Experimental data: patent US20260355182A1, “ISOQUINOLINE DERIVATIVE, SYNTHESIS METHOD THEREFOR, AND USE THEREOF” (Harbin Gloria Pharmaceuticals Co., Ltd., priority 2023, published 2026)

How the values were obtained:
Pgk1 [1] = molecular target: T1, Pgk1 (Homo sapiens, UniProt P00558); assay: T6 binding affinity with Pgk1 by SPR; settings: steady-state affinity model
T1 sequence (P00558 1-417): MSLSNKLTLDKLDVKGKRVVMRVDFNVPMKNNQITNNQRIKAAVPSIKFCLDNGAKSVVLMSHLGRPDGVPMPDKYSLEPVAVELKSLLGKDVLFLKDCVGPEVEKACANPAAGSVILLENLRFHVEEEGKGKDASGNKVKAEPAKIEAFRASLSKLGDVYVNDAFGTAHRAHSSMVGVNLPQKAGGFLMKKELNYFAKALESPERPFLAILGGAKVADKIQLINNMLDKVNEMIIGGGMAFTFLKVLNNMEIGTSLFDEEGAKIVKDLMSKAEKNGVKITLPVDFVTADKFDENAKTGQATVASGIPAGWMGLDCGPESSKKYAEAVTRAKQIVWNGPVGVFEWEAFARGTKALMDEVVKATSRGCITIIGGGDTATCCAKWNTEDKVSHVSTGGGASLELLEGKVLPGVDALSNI
Excerpt: Surface plasmon resonance (SPR) was used to measure the interaction between the small molecule T6 and Pgk1. Equilibrium binding responses at increasing T6 concentrations were fitted using a steady-state affinity model. In FIG. 9, diamonds represent the measured response units (RU), and the black curve indicates the fitted binding isotherm. […] The vertical line marks the calculated KD value.

[2] = test system: MPTP-induced Parkinsonian mouse model; assay: MPTP-induced Parkinsonian mouse model, rotarod and TH Western blot (T6); assay type: in vivo; settings: T6 0.15, 0.3 and 1.5 mg/kg
Method: Mice were administered MPTP at 20 mg/kg to induce Parkinsonian motor impairment and dopaminergic neuronal injury. […] In FIG. 13, A) motor coordination and endurance were assessed using the rotarod test and are expressed as the time remaining on the rotating rod. […] Actin was used as a loading control. […] Data are presented as mean±error bars, with individual points representing biological replicates. Significance of one-way ANOVA analysis is indicated as P<0.05 (*), P<0.01 (**), and P<0.001 (***).

db/db mice [3] = assay: Acute glucose-response assay in non-fasted db/db mice; assay type: in vivo; settings: s.c., 2 h; TZ 0.5, liraglutide 0.6, T6 0.5 mg/Kg
Method: The db/db mice were used to evaluate the glucose-lowering activity of compound T6 in comparison with reference metabolic agents (TZ 0.5 mg/Kg, liraglutide 0.6 mg/Kg, T6 0.5 mg/Kg). In FIG. 15, A) for the acute glucose-response assay, drugs were administered to non-fasted db/db mice. Immediately after drug administration (s. c.), mice were deprived of food and water, and blood glucose levels were measured from tail blood samples 2 h later. The relative percentage change in blood glucose was calculated by comparing glucose levels before and after treatment in the same animal. […] HbA1c levels were then measured using a glycated hemoglobin A1c enzyme-linked immunosorbent assay, also referred to as a mouse HbA1c ELISA assay. […] Data are presented as mean±error bars, with individual circles representing individual animals. Statistical significance is indicated as P<0.001 (**) and P<0.0001 (***).

SK-N-SH cells = assay: Dose-effect relationship on cellular ATP levels in cultured SK-N-SH cells; assay type: cell-based, human
Method: SK-N-SH cells were seeded in a 6-well plate at a density of 6×10^4 per well. Cells were cultured for 12 hours under 5% O2, and the drug was added. Cells were harvested after 48 hours. Cellular ATP levels were measured using a Promega ATP assay kit. The experiment was repeated 5 times to 7 times.

FUS-525-GFP = assay: Level of ALS-associated mutant FUS-GFP protein in primary mouse neurons (Western blot); assay type: cell-based; settings: 5, 10 or 20 μM
Method: Primary mouse neurons were engineered to express GFP-tagged mutant FUS-525, an ALS-associated pathogenic FUS variant, and were treated with vehicle control or compound T6 at 5, 10, or 20 μM. Cell lysates were analyzed by Western blotting using antibodies detecting FUS-GFP, with GAPDH serving as a loading control. In FIG. 11, the FUS-GFP fusion protein was detected at approximately 96 kDa, whereas GAPDH was detected at approximately 38 kDa.

primary mouse neurons = assay: Cellular status and glucose metabolism-related gene expression in primary mouse neurons; assay type: cell-based; settings: normoxic, 72 h, T6 10 PM (so in the source)
Excerpt: In FIG. 10, A) representative bright-field images show the cellular status of primary neurons after treatment. […] The analyzed genes included G6PD, HK2, LDHA, PDK1, PGK1, and SLC2A1/GLUT1. […] TZ treatment produced a similar but generally more moderate metabolic gene-response profile, including increased LDHA, PDK1, and SLC2A1/GLUT1 expression. […] Error bars indicate variation among measurements. […] The results support the use of T6 or related compounds as agents capable of regulating neuronal metabolic status and glucose metabolism-associated pathways.

Pgk1 [4] = molecular target: T1, Pgk1; assay: Affinity for Pgk1 protein (Biacore T200); assay type: binding
Method: Example 30: Determination of Affinities of Compounds for Pgk1 Protein
Purified Pgk1 protein (with a concentration of 1 mg/mL) was immobilized on a Biacore T200 chip. […] The obtained curves can calculate parameters such as affinity and Rmax.

db/db mice [5] = assay: Long-term hypoglycemic and weight-loss effects in db/db mice, drinking water; assay type: in vivo; settings: drinking water 7 days
Method: The hypoglycemic effect of the novel isoquinoline derivatives via intraperitoneal injection lasted no more than 6 hours. To determine the long-term hypoglycemic effect of T6, T6 was added to drinking water and administered to mice continuously for one week.
After 7 days of treatment, changes in glycated hemoglobin (HbA1c) level, insulin level in mouse blood, and body weight, were measured.

[6] = test system: SK-N-SH cells (Pgk1 knockdown); assay: Seahorse mitochondrial respiration in Pgk1-knockdown and normal SK-N-SH cells; assay type: cell-based, human; settings: 10 μM
Method: Cellular mitochondrial stress was detected using a Seahorse XFe analyzer (XFe-24, Seahorse Bioscience, Billerica, MA, UAS) to measure the oxygen consumption rate (OCR). SH-SKN cell lines were seeded in a 24-well plate compatible with the Seahorse XFe analyzer. After 24 hours, cells were treated with DMSO (0.01%) or various drugs (10 μM). Cellular mitochondrial stress was detected 12 hours after drug treatment. For the mitochondrial stress test, 97.2 mL of Seahorse basal medium (Seahorse Bioscience, Billerica, MA, UAS) was taken and heated in a water bath to 37 °C, and 1 mL of a stock solution was added. The stock solution was prepared by mixing the following solutions: 1 mL of 200 mM L-glutamine solution (Sigma), 1 mL of 100 mM pyruvate solution (Sigma), and 800 μL of 2.5 M glucose solution, and the pH of the stock solution was adjusted to 7.4 with 1 M NaOH solution. Before detection, the probe plate was taken out, and 1 mL of XF Carlibrant solution (Seahorse Bioscience) was added to the probe plate. The plate was then incubated overnight in a CO2-free constant temperature incubator at 37 °C. After drug treatment, the cells were removed and washed twice with preheated Seahorse basal medium at 37 °C, ensuring that 500 μL of Seahorse basal medium remained in each well. The cells were incubated in a CO2-free constant temperature incubator at 37 °C for 1 hour. […]

Nc1nc(N2CCN(C(=O)[C@H]3CCCO3)CC2)cc2cc3c(cc12)OCC3 [Compound T6]
Estimated Rmax (Pgk1 [1]): 7.799 RU
Kd (Pgk1 [1]; read-out: KD (approximately)): ~22.4 µM
Kd (Pgk1 [1]; read-out: KD (fitted dissociation constant)): 22.4 µM
Rotarod performance ([2]; MPTP 20 mg/kg): improved rotarod performance in MPTP-treated mice, with significant protective effects
TH protein abundance ([2]; normalized to actin, vs MPTP alone): significantly increased relative TH abundance
Acute change in blood glucose (db/db mice [3]): marked reduction in blood glucose
Inhibition of cell growth (SK-N-SH cells; 50 μM, SK-N-SH cells): a tendency to inhibit cell growth
minimal effective concentration (SK-N-SH cells; Homo sapiens, 48 h, SK-N-SH cells, read-out: Biologically effective concentration): ~10 µM
Optimal dose for cellular ATP levels (SK-N-SH cells; doses 5, 10 and 50 μM, 48 hours, 5% O2): 50 µM
Abundance of mutant FUS-GFP protein (FUS-525-GFP): reduced the abundance of mutant FUS-GFP protein
GAPDH level (FUS-525-GFP; loading control): remained largely unchanged
Relative mRNA expression of G6PD (primary mouse neurons; control = 1.0): increased
Neuronal cellular morphology/status (primary mouse neurons; TZ 10 μM): detectable changes in neuronal cellular morphology/status
Relative mRNA expression of HK2 (primary mouse neurons; TZ 10 μM, control = 1.0): not increased
Relative mRNA expression of LDHA (primary mouse neurons; TZ 10 μM, control = 1.0): increased
Relative mRNA expression of PDK1 (primary mouse neurons; TZ 10 μM, control = 1.0): increased
Relative mRNA expression of PGK1 (primary mouse neurons; TZ 10 μM, control = 1.0): only modestly changed
Relative mRNA expression of SLC2A1/GLUT1 (primary mouse neurons; TZ 10 μM, control = 1.0): increased
Kd (Pgk1 [4]; + saturated ADP, read-out: Affinity (KD) in the presence of ADP): > 1000 µM
Rmax (Pgk1 [4]; drug alone, amount of small-molecule drug bound): 106 RU
Glycated hemoglobin (HbA1c) level (db/db mice [5]; metformin 350 mg/kg, terazosin 0.3 mg/kg, T6 1.5 mg/kg): decrease in glycated hemoglobin (HbA1c) level
Long-term hypoglycemic effect versus terazosin and metformin (db/db mice [5]; long-term oral administration): better hypoglycemic effect than that of terazosin and metformin
Basal and maximum respiratory rate, normal cells ([6]; normal (control) cells): activated both the basal respiratory rate and maximum respiratory rate
Basal and maximum respiratory rate, shPgk1 knockdown cells ([6]; shPgk1 knockdown cells): this activity was absent in shPgk1 knockdown cells
